Here are results for 13 molecules from PubChem BioAssay AID252 (DTP/NCI, 2004).

“And” between values parts separate entries of the source, which are not always exact repeats. Identical values can stand only once. Inconclusive results and toxic doses are left out.

This assay has as its system BDF1 mice, intracerebral L1210 leukemia, survival T/C. The assay is described as follows: NCI In Vivo Anticancer Drug Screen. Data for tumor model L1210 Leukemia (intracerebral) in B6D2F1 (BDF1) mice. The following applies: higher = longer survival. The procedure: The antitumor activity of compounds was measured in mice bearing transplantable tumors. Survival or tumor size were measured and the results are expressed as the measurement made in the treated group (T) divided by the measurement made in the vehicle treated control group (C). The tumor model used in this assay is L1210 Leukemia (intracerebral) in B6D2F1 (BDF1) mice

The mark [1] stands for this setting: endpoint: mean survival time, dose: 1.5 mg/kg/injection, schedule: Q01DX009 (ip), vehicle: saline.

For the molecule `O=NN(CCF)C(=O)NC1CC2CCC1C2` (stereo unspecified), the T/C was 106 % of control (endpoint: mean survival time, dose: 5.7 mg/kg/injection, schedule: Q01DX001 (ip), vehicle: other); 115 % of control (endpoint: mean survival time, dose: 11.5 mg/kg/injection, schedule: Q01DX001 (ip), vehicle: other); 162 % of control (endpoint: mean survival time, dose: 16.5 mg/kg/injection, schedule: Q01DX001 (ip), vehicle: other); 161 % of control (endpoint: mean survival time, dose: 23.0 mg/kg/injection, schedule: Q01DX001 (ip), vehicle: other); 252 % of control (endpoint: mean survival time, dose: 25.0 mg/kg/injection, schedule: Q01DX001 (ip), vehicle: other); 274 % of control (endpoint: mean survival time, dose: 37.0 mg/kg/injection, schedule: Q01DX001 (ip), vehicle: other). The T/C runs as follows: (endpoint: mean survival time, dose: 37.5 mg/kg/injection, schedule: Q01DX001 (ip), vehicle: other) 321 % of control; (endpoint: mean survival time, dose: 46.0 mg/kg/injection, schedule: Q01DX001 (ip), vehicle: other) 309 % of control; (endpoint: mean survival time, dose: 70.0 mg/kg/injection, schedule: Q01DX001 (ip), vehicle: other) 312 % of control; (endpoint: mean survival time, dose: 126.0 mg/kg/injection, schedule: Q01DX001 (ip), vehicle: other) 312 % of control.

Consider `CC(=O)Nc1ccc2c(Nc3ccc(NS(C)(=O)=O)cc3)c3ccccc3nc2c1`, for which the T/C reads like this: under setting [1], 89 % of control; (endpoint: mean survival time, dose: 1.5 mg/kg/injection, schedule: Q01DX009 (sc), vehicle: saline) 98 % of control; (endpoint: mean survival time, dose: 3.0 mg/kg/injection, schedule: Q01DX009 (ip), vehicle: saline) 98 % of control; (endpoint: mean survival time, dose: 3.0 mg/kg/injection, schedule: Q01DX009 (sc), vehicle: saline) 105 % of control; (endpoint: mean survival time, dose: 6.25 mg/kg/injection, schedule: Q01DX009 (ip), vehicle: saline) 86 % of control; (endpoint: mean survival time, dose: 6.25 mg/kg/injection, schedule: Q01DX009 (sc), vehicle: saline) 109 % of control. Moreover, the T/C (endpoint: mean survival time, dose: 12.5 mg/kg/injection, schedule: Q01DX009 (sc), vehicle: saline) is 98 % of control.

Take `CC(=O)OCC1OC(n2cnc3c(=S)nc[nH]c32)C(OC(C)=O)C1OC(C)=O` (stereo unspecified): the T/C (endpoint: mean survival time, dose: 25.0 mg/kg/injection, schedule: Q01DX Z (ip), vehicle: carboxymethylcellulose (CMC)) was 112 % of control and 117 % of control; the T/C (endpoint: mean survival time, dose: 100.0 mg/kg/injection, schedule: Q01DX Z (ip), vehicle: carboxymethylcellulose (CMC)) was 157 % of control; the T/C (endpoint: mean survival time, dose: 200.0 mg/kg/injection, schedule: Q01DX Z (ip), vehicle: carboxymethylcellulose (CMC)) is 121 % of control and 87 % of control.

Turning to `N#[N+]c1cnc([O-])[nH]c1=O`, the T/C was 102 % of control (endpoint: mean survival time, dose: 5.0 mg/kg/injection, schedule: Q01DX015 (ip), vehicle: alkali diluted with saline); 101 % of control (endpoint: mean survival time, dose: 7.7 mg/kg/injection, schedule: Q01DX015 (ip), vehicle: alkali diluted with saline); 106 % of control (endpoint: mean survival time, dose: 11.5 mg/kg/injection, schedule: Q01DX015 (ip), vehicle: alkali diluted with saline); 97 % of control (endpoint: mean survival time, dose: 12.0 mg/kg/injection, schedule: Q01DX001 (ip), vehicle: alkali diluted with saline); 101 % of control (endpoint: mean survival time, dose: 15.0 mg/kg/injection, schedule: Q01DX Z (ip), vehicle: alkali diluted with saline); 102 % of control (endpoint: mean survival time, dose: 19.0 mg/kg/injection, schedule: Q01DX001 (ip), vehicle: alkali diluted with saline). The T/C is, setting by setting: (endpoint: mean survival time, dose: 20.0 mg/kg/injection, schedule: Q01DX Z (ip), vehicle: alkali diluted with saline) 97 % of control; (endpoint: mean survival time, dose: 25.0 mg/kg/injection, schedule: Q01DX Z (ip), vehicle: alkali diluted with saline) 92 % of control; (endpoint: mean survival time, dose: 29.0 mg/kg/injection, schedule: Q01DX001 (ip), vehicle: alkali diluted with saline) 106 % of control; (endpoint: mean survival time, dose: 40.0 mg/kg/injection, schedule: Q01DX Z (ip), vehicle: alkali diluted with saline) 91 % of control.

Take `Nc1ncnc2c1ccn2C1OC(CO)C(O)C1O` (stereo unspecified): the T/C is, setting by setting: (endpoint: mean survival time, dose: 1.2 mg/kg/injection, schedule: Q01DX001 (ip), vehicle: carboxymethylcellulose (CMC)) 96 % of control; (endpoint: mean survival time, dose: 1.9 mg/kg/injection, schedule: Q01DX001 (ip), vehicle: carboxymethylcellulose (CMC)) 97 % of control; (endpoint: mean survival time, dose: 2.9 mg/kg/injection, schedule: Q01DX001 (ip), vehicle: carboxymethylcellulose (CMC)) 100 % of control.

As for `CCCCCCCCCCCCCCCCCCCCCC(=O)Nc1ccn(C2OC(CO)C(O)C2O)c(=O)n1` (stereo unspecified), the T/C was 208 % of control (endpoint: median survival time, dose: 25.0 mg/kg/injection, schedule: Q01DX009 (ip), vehicle: saline with Tween-80); 162 % of control (endpoint: median survival time, dose: 50.0 mg/kg/injection, schedule: Q01DX009 (ip), vehicle: saline with Tween-80); 198 % of control (endpoint: median survival time, dose: 100.0 mg/kg/injection, schedule: Q01DX009 (ip), vehicle: saline with Tween-80); 250 % of control (endpoint: median survival time, dose: 200.0 mg/kg/injection, schedule: Q01DX009 (ip), vehicle: saline with Tween-80); 96 % of control (endpoint: median survival time, dose: 400.0 mg/kg/injection, schedule: Q01DX009 (ip), vehicle: saline with Tween-80).

Consider `CN(N=O)C(=O)Nc1ccc(C(=O)O)cc1`, for which the T/C by setting is: (endpoint: mean survival time, dose: 60.0 mg/kg/injection, schedule: Q01DX001 (ip), vehicle: carboxymethylcellulose (CMC)) 110 % of control; (endpoint: mean survival time, dose: 120.0 mg/kg/injection, schedule: Q01DX001 (ip), vehicle: carboxymethylcellulose (CMC)) 114 % of control.

`CN(N=O)C(=O)Nc1ccccc1`: the T/C (endpoint: mean survival time, dose: 150.0 mg/kg/injection, schedule: Q01DX001 (ip), vehicle: carboxymethylcellulose (CMC)) is 103 % of control and the T/C (endpoint: mean survival time, dose: 300.0 mg/kg/injection, schedule: Q01DX001 (ip), vehicle: carboxymethylcellulose (CMC)) was 98 % of control.

Take `O=c1[nH]cc(F)c(=O)[nH]1`: the T/C (endpoint: mean survival time, dose: 12.76 mg/kg/injection, schedule: Q01DX015 (ip), vehicle: carboxymethylcellulose (CMC)) was 100 % of control; the T/C (endpoint: mean survival time, dose: 19.43 mg/kg/injection, schedule: Q01DX015 (ip), vehicle: carboxymethylcellulose (CMC)) was 111 % of control; the T/C (endpoint: mean survival time, dose: 29.0 mg/kg/injection, schedule: Q01DX015 (ip), vehicle: carboxymethylcellulose (CMC)) is 113 % of control; the T/C (endpoint: mean survival time, dose: 79.5 mg/kg/injection, schedule: Q01DX001 (ip), vehicle: carboxymethylcellulose (CMC)) was 112 % of control; the T/C (endpoint: median survival time, dose: 8.4 mg/kg/injection, schedule: Q01DX009 (ip), vehicle: saline) is 105 % of control; the T/C (endpoint: median survival time, dose: 14.0 mg/kg/injection, schedule: Q01DX009 (ip), vehicle: saline) is 108 % of control. Further, the T/C by setting is: (endpoint: median survival time, dose: 23.0 mg/kg/injection, schedule: Q04DX003 (ip), vehicle: saline) 108 % of control; (endpoint: median survival time, dose: 39.0 mg/kg/injection, schedule: Q01DX009 (ip), vehicle: saline) 107 % of control; (endpoint: median survival time, dose: 39.0 mg/kg/injection, schedule: Q04DX003 (ip), vehicle: saline) 118 % of control; (endpoint: median survival time, dose: 65.0 mg/kg/injection, schedule: Q01DX009 (ip), vehicle: saline) 96 % of control; (endpoint: median survival time, dose: 108.0 mg/kg/injection, schedule: Q04DX003 (ip), vehicle: saline) 156 % of control; (endpoint: median survival time, dose: 180.0 mg/kg/injection, schedule: Q04DX003 (ip), vehicle: saline) 99 % of control.

Turning to `O=NN(CCBr)C(=O)NCCBr`, the T/C (endpoint: mean survival time, dose: 133.0 mg/kg/injection, schedule: Q01DX001 (ip), vehicle: carboxymethylcellulose (CMC)) was 112 % of control.

As for `CCCC(=O)NC1=C(N2CC2)C(=O)C(NC(=O)CCC)=C(N2CC2)C1=O`, the T/C is 105 % of control (endpoint: mean survival time, dose: 1.0 mg/kg/injection, schedule: Q01DX009 (ip), vehicle: saline); 152 % of control (endpoint: mean survival time, dose: 4.0 mg/kg/injection, schedule: Q01DX009 (ip), vehicle: saline); 89 % of control (endpoint: mean survival time, dose: 8.0 mg/kg/injection, schedule: Q01DX009 (ip), vehicle: saline).

On to `O=NN(CCCl)C(=O)NC1CCS(=O)(=O)C1` (stereo unspecified) (tested in a mixture with another compound), for which the T/C runs as follows: (endpoint: mean survival time, dose: 14.0 mg/kg/injection, schedule: Q01DX001 (oral), vehicle: other) 172 % of control; (endpoint: mean survival time, dose: 16.0 mg/kg/injection, schedule: Q01DX001 (ip), vehicle: other) 156 % of control; (endpoint: mean survival time, dose: 22.0 mg/kg/injection, schedule: Q01DX001 (oral), vehicle: other) 217 % of control; (endpoint: mean survival time, dose: 36.0 mg/kg/injection, schedule: Q01DX001 (ip), vehicle: other) 121 % of control; (endpoint: mean survival time, dose: 48.0 mg/kg/injection, schedule: Q01DX001 (oral), vehicle: other) 116 % of control.

For `O=C1C(NCCO)=C(N2CC2)C(=O)C(NCCO)=C1N1CC1`, the T/C (endpoint: mean survival time, dose: 0.18 mg/kg/injection, schedule: Q01DX009 (ip), vehicle: saline) is 108 % of control and 116 % of control; the T/C (endpoint: mean survival time, dose: 0.37 mg/kg/injection, schedule: Q01DX009 (ip), vehicle: saline) was 114 % of control; the T/C under setting [1] was 98 % of control.
